Measured values as given in ChEMBL document CHEMBL1201862, “PubChem BioAssay data set” (2004).
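96-well plates; 48 h exposure; 5 concentrations. Endpoints by linear interpolation between flanking doses. Not reached: highest tested concentration assigned. GI50 marks 50% less growth.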 Calls of active or inactive are those of the source. Rule as the data show it: active = GI50 up to about 1.1 µM and inactive = higher.

Columns and labels:
Assay in all cases: growth of human tumour cells (NCI), 48 h
[1] = system: ACHN
[2] = system: CCRF-CEM
[3] = system: COLO 205
[4] = system: HOP-92
[5] = system: Hs-578T
[6] = system: M14
[7] = system: MDA-N
[8] = system: OVCAR-3
[9] = system: OVCAR-5
[10] = system: PC-3
[11] = system: RXF 393
[12] = system: SK-OV-3
[13] = system: SNB-19
[14] = system: SNB-75
[15] = system: SR
[16] = system: TK-10
[17] = system: U-251
[18] = system: UACC-62
[19] = system: SK-MEL-2

Measured: GI50

Cc1cnc(/N=c2\sc(C)cn2-c2ncc(C)s2)s1
inactive: [1] > 100 µM | [2] > 100 µM | [3] > 100 µM | [4] > 100 µM | [5] > 100 µM | [6] > 100 µM | [7] > 100 µM | [8] > 100 µM | [9] > 100 µM | [10] > 100 µM | [11] > 100 µM | [12] > 100 µM | [13] > 100 µM | [14] 71.3 µM | [15] > 100 µM | [16] > 100 µM | [17] > 100 µM | [18] > 100 µM

COC(=O)C(Cc1c[nH]c2ccccc12)NP(=O)(O)OCC1OC(n2ccc(N)nc2=O)C(O)C1O (stereo unspecified)
inactive: [1] > 100 µM | [2] 88.3 µM | [3] > 100 µM | [4] > 100 µM | [5] > 100 µM | [6] > 100 µM | [7] > 100 µM | [8] > 100 µM | [9] > 100 µM | [10] > 100 µM | [13] > 100 µM | [14] > 100 µM | [15] 82.2 µM | [16] > 100 µM | [17] > 100 µM | [18] 85.9 µM

c1ccc(-c2cs[s+]c2)cc1
inactive: [1] > 100 µM | [2] 22.9 µM | [3] > 100 µM | [4] > 100 µM | [5] > 100 µM | [6] > 100 µM | [7] > 100 µM | [8] 67 µM | [9] > 100 µM | [10] > 100 µM | [11] > 100 µM | [12] > 100 µM | [13] > 100 µM | [14] > 100 µM | [15] 52.2 µM | [16] > 100 µM | [17] > 100 µM | [18] > 100 µM

C[C@@H]1[C@@H](c2ccccc2)O[B-](c2ccccc2)(c2ccccc2)[N+]1(C)C
inactive: [1] 50.1 µM | [2] 61.4 µM | [3] 33 µM | [4] 25.4 µM | [5] 54.2 µM | [6] 34.5 µM | [7] 54.1 µM | [8] 70.5 µM | [9] > 100 µM | [10] 22.8 µM | [11] 34.7 µM | [19] > 100 µM | [12] > 100 µM | [13] > 100 µM | [15] 53 µM | [16] 54.7 µM | [17] > 100 µM | [18] > 100 µM

O=C1c2cc(Cl)ccc2-n2cnnc2C2CSCN12 (stereo unspecified)
inactive: [1] > 100 µM | [2] > 100 µM | [3] > 100 µM | [5] > 100 µM | [6] > 100 µM | [7] > 100 µM | [8] > 100 µM | [9] > 100 µM | [10] > 100 µM | [11] > 100 µM | [19] > 100 µM | [12] > 100 µM | [13] > 100 µM | [14] > 100 µM | [15] 75.2 µM | [16] > 100 µM | [17] > 100 µM | [18] > 100 µM

CC(=O)N/N=C1/CC[C@@]2(C)C(=CC[C@H]3C4CCC(C(C)CCCC(C)C)[C@@]4(C)CCC32)C1(C)C (stereo partly specified)
inactive: [1] 62.4 µM | [2] 13.8 µM | [3] 32.9 µM | [4] > 100 µM | [5] > 100 µM | [6] 48 µM | [7] > 10 µM | [8] 74.8 µM | [9] > 100 µM | [10] 30.1 µM | [19] 58.3 µM | [12] > 100 µM | [13] 75.3 µM | [14] > 100 µM | [15] 50.9 µM | [16] > 100 µM | [17] 75.5 µM | [18] > 100 µM

CC(=O)Nn1c(Cc2ccc(Cl)cc2)nn(C)c1=O
inactive: [1] > 100 µM | [2] > 100 µM | [3] > 100 µM | [4] > 100 µM | [5] > 100 µM | [6] > 100 µM | [7] > 100 µM | [8] > 100 µM | [9] > 100 µM | [10] > 100 µM | [19] > 100 µM | [12] > 100 µM | [13] > 100 µM | [14] > 100 µM | [15] > 100 µM | [16] > 100 µM | [17] > 100 µM | [18] > 100 µM

CCOC(=O)Cc1nc2c(N)ncnc2n1C1OC(COC(C)=O)C(OC(C)=O)C1OC(C)=O (stereo unspecified)
inactive: [1] > 100 µM | [2] > 100 µM | [3] > 100 µM | [4] 83.9 µM | [5] > 100 µM | [6] > 100 µM | [7] > 100 µM | [8] > 100 µM | [10] > 100 µM | [12] > 100 µM | [13] > 100 µM | [15] > 100 µM | [16] > 100 µM | [17] > 100 µM | [18] > 100 µM

CC(C)=CCC/C(C)=C/COc1c2ccoc2cc2oc(=O)ccc12 [BERGAMOTTIN]
inactive: [1] 22.8 µM | [2] 18 µM | [3] 17.5 µM | [4] 50.2 µM | [5] 48.1 µM | [6] 27.7 µM | [7] 34.7 µM | [8] 25.4 µM | [9] 23.8 µM | [10] 29.9 µM | [19] 16 µM | [12] 27.5 µM | [13] 32.3 µM | [15] 15.2 µM | [16] 42.2 µM | [17] 20.6 µM | [18] 10.7 µM

[O-][n+]1onc(-c2ccccc2)c1-c1no[n+]([O-])c1-c1c(-c2ccccc2)no[n+]1[O-]
inactive: [1] 4.81 µM | [2] 5.18 µM | [3] 6.37 µM | [4] 10.6 µM | [5] 54.1 µM | [6] 12.1 µM | [7] 2.58 µM | [8] 5.71 µM | [9] 18.6 µM | [10] 2.47 µM | [11] 3.35 µM | [12] 43.8 µM | [13] 27 µM | [14] 2.52 µM | [15] 2.7 µM | [16] 44.5 µM | [18] 12.6 µM

COC(=O)c1scc(N)c1-n1ccc(=O)[nH]c1=O
inactive: [1] > 100 µM | [2] > 100 µM | [3] > 100 µM | [4] > 100 µM | [5] > 100 µM | [6] > 100 µM | [7] > 100 µM | [9] > 100 µM | [10] > 100 µM | [11] > 100 µM | [19] > 100 µM | [13] > 100 µM | [14] > 100 µM | [15] > 100 µM | [16] > 100 µM | [17] > 100 µM | [18] > 100 µM

O=C1CCCC2C(O)CCC[C@H]12 (stereo partly specified)
inactive: [1] > 100 µM | [2] > 100 µM | [3] > 100 µM | [5] > 100 µM | [6] > 100 µM | [7] > 100 µM | [9] > 100 µM | [10] > 100 µM | [11] 11.4 µM | [19] > 100 µM | [12] > 100 µM | [13] > 100 µM | [14] > 100 µM | [15] > 100 µM | [16] > 100 µM | [17] > 100 µM | [18] > 100 µM

O=c1[nH]c(=O)n(C2OC(CO)C(O)C(F)C2O)cc1F (stereo unspecified)
inactive: [1] > 100 µM | [2] > 100 µM | [3] > 100 µM | [4] > 100 µM | [5] > 100 µM | [6] > 100 µM | [7] > 100 µM | [8] > 100 µM | [9] > 100 µM | [10] > 100 µM | [19] > 100 µM | [12] > 100 µM | [13] > 100 µM | [15] 25.4 µM | [16] > 100 µM | [17] > 100 µM | [18] > 100 µM

Cn1c(=O)sc2cc(C(=S)N3CCCCC3)ccc21
inactive: [1] 96.2 µM | [2] 16.5 µM | [3] 57.9 µM | [5] 30.8 µM | [6] > 100 µM | [7] > 100 µM | [8] 69.2 µM | [9] > 100 µM | [10] 94.6 µM | [11] 38.8 µM | [19] > 100 µM | [12] > 100 µM | [13] > 100 µM | [14] 19.9 µM | [15] 22 µM | [16] > 100 µM | [17] 41.8 µM | [18] > 100 µM

Cc1ncc([N+](=O)[O-])n1CCNC(=O)CCCn1ccnc1[N+](=O)[O-]
inactive: [1] > 100 µM | [2] > 100 µM | [3] > 100 µM | [5] > 100 µM | [6] > 100 µM | [7] > 100 µM | [8] > 100 µM | [9] > 100 µM | [10] > 100 µM | [11] > 100 µM | [19] > 100 µM | [13] > 100 µM | [14] > 100 µM | [15] > 100 µM | [16] > 100 µM | [17] > 100 µM | [18] > 100 µM

COc1cc(/C=C/C(=O)OC[C@]23O[C@H]2[C@@H](OC2OC(C)C(O)C(O)C2O)C2C=CO[C@@H](OC4OC(CO)C(O)C(O)C4O)C23)ccc1O (stereo partly specified)
inactive: [1] > 100 µM | [3] > 100 µM | [4] > 100 µM | [5] > 100 µM | [6] > 100 µM | [7] > 100 µM | [8] > 100 µM | [9] > 100 µM | [10] > 100 µM | [19] > 100 µM | [12] > 100 µM | [13] > 100 µM | [14] > 100 µM | [15] > 100 µM | [16] > 100 µM | [17] > 100 µM | [18] > 100 µM
